Data published in US10494375B2, “Antimicrobial compound” (priority 2016, dated 2019).
Values after ≈ are worked out from the molar mass of the structure shown. Where two headings read alike, the source gives them in different places. Where a SMILES comes first, the peptide text is derived from it. Bridges are numbered along the chain shown (N, C = ends). [ ]: non-standard residue; d: D form. The star is where a group is joined. Ileψ(thiazoline)Cys = CC[C@H](C)[C@H](N)C1=N[C@H](C(=O)*)CS1; dOrn = NCCC[C@@H](N)C(=O)O

What was measured:
[1] = tested on: E. faecium CCUG 37832; experiment: MIC determination by standardized microdilution test in Mueller-Hinton broth; format: cell-based, Enterococcus faecium
Protocol: (§1) MBL-AB01 was tested against a panel of Gram-negative and Gram-positive pathogens. MICs for all Gram-positive and Gram-negative bacterial strains were determined by standardized microdilution tests using Mueller-Hinton broth (Acumedia). Bacterial inoculums containing 5×10^5 CFU/ml were incubated for 19 h at 35° C. in the presence of different antibiotic concentrations according to Clinical and Laboratory Standards Institute protocols. The bacterial strains were obtained from the culture collections ATCC (American Type Culture Collection), NCTC (National Collection of Type Cultures) and CCUG (culture collection university of Göteborg Sweden).

[2] = tested on: S. aureus ATCC 29213; experiment: as above; format: cell-based
Protocol: as §1

[3] = tested on: S. aureus ATCC 43300 (MRSA); experiment: as above; format: cell-based
Protocol: as §1

[4] = tested on: S. aureus NCTC 6571; experiment: as above; format: cell-based
Protocol: as §1

[5] = tested on: M. luteus, ATCC 9341; experiment: as above; format: cell-based, Micrococcus luteus
Protocol: as §1

[6] = tested on: E. faecium CTC 492; experiment: as above; format: cell-based, Enterococcus faecium
Protocol: as §1

[7] = tested on: IMR90 Human Lung Fibroblast (ATCC CCL-186) cells; experiment: In vitro cytotoxicity, CellTiter-GLO 2.0 viability assay; format: cell-based; conditions: IMR-90, 24 hours exposure, viability relative to control wells
Protocol: Xantolipin was obtained from Shaghai Jiao Tong University, China.
IMR90 cells were grown in DMEM—low glucose (Sigma) supplemented with 2 mM L-Glutamine, 1% MEM NEAA (Sigma), 1 mM Sodium Pyruvate, 10 mM HEPES and 100 U/mL Pen-Strep. The cells were subcultured twice or thrice a week at ratios between 1:2 and 1:8, depending on confluency. […] The microplates with cell suspension were shaked at 1600 rpm with 2.5 mm amplitude (Bioshake) for 20 seconds after seeding. […] The microplates with the IMR90 cells were incubated at 37° C. with 5% CO2 atmosphere. […] The serial dilutions with the compounds were further diluted in cell culture medium and transferred to the assay wells, giving a total DMSO concentration in the assay wells of 0.6%. After exposure, the assay plates with the IMR90 cells were further incubated at 37° C. with 5% CO2 atmosphere for 24 hours. The viability of the cells after incubation was measured using the Promega CellTiter-GLO 2.0 viability assay.

[8] = footnote of Table 1: resistance profile of Enterococcus faecium CCUG37832, read-out: Mic
[9] = Staphylococcus aureus, ATCC29213, S. aureus ATCC 29213, 19 h at 35° C., read-out: MIC
[10] = Staphylococcus aureus, S. aureus ATCC 43300 (MRSA), 19 h at 35° C., read-out: MIC
[11] = Staphylococcus aureus, NCTC6571, S. aureus NCTC 6571, 19 h at 35° C., read-out: MIC
[12] = Micrococcus luteus, ATCC9341, M. luteus, ATCC 9341, 19 h at 35° C., read-out: MIC
[13] = Enterococcus faecium, CCUG37832, E. faecium CCUG 37832 (multiresistant, vanA-positive clinical isolate), 19 h at 35° C., read-out: MIC
[14] = Enterococcus faecium, CTC492, E. faecium CTC 492, 19 h at 35° C., read-out: MIC

`CC1(C)S[C@@H]2[C@H](NC(=O)[C@H](N)c3ccccc3)C(=O)N2[C@H]1C(=O)O` [Ampicillin] showed an MIC [1, 8] of 20 µg/mL (≈ 57.2 µM).

With `CN[C@@H]1[C@@H](O[C@H]2O[C@H](CO)[C@@H](N)[C@H](O)[C@H]2O)OC2C[C@@H](N)[C@@H](O[C@H]3[C@H](O)[C@@H](O)[C@H](N)C[C@@H]3N)OC2[C@@H]1O` (stereo partly shown) [Apramycin] the MIC [1, 8] was > 20 µg/mL.

`CC[C@H](C)[C@H](N)C1=N[C@H](C(=O)N[C@@H](CC(C)C)C(=O)N[C@H](CCC(=O)O)C(=O)N[C@H](C(=O)N[C@H]2CCCCNC(=O)[C@H](CC(N)=O)NC(=O)[C@@H](CC(=O)O)NC(=O)[C@H](Cc3cnc[nH]3)NC(=O)[C@@H](Cc3ccccc3)NC(=O)[C@H]([C@@H](C)CC)NC(=O)[C@@H](CCCN)NC2=O)[C@@H](C)CC)CS1` [Bacitracin] ({Ileψ(thiazoline)Cys}-L[dE]IK[dOrn]I[dF]H[dD]N; lactam 4-C) was tested, and the MIC [1, 8] was > 8 µg/mL.

With `CN(C)[C@@H]1C(O)=C(C(N)=O)C(=O)[C@@]2(O)C(O)=C3C(=O)c4c(O)ccc(Cl)c4[C@@](C)(O)[C@H]3C[C@@H]12` [Chlortetracycline] the MIC [1, 8] was > 10 µg/mL.

In the case of `N[C@@H]1CON=C1O` [Cycloserine], the MIC [1, 8] is reported as > 8 µg/mL.

For `CCCCCCCCCC(=O)N[C@@H](Cc1c[nH]c2ccccc12)C(=O)N[C@H](CC(N)=O)C(=O)N[C@@H](CC(=O)O)C(=O)N[C@@H]1C(=O)NCC(=O)N[C@@H](CCCN)C(=O)N[C@@H](CC(=O)O)C(=O)N[C@H](C)C(=O)N[C@@H](CC(=O)O)C(=O)NCC(=O)N[C@H](CO)C(=O)N[C@@H]([C@H](C)CC(=O)O)C(=O)N[C@@H](CC(=O)c2ccccc2N)C(=O)O[C@@H]1C` [Daptomycin], the MIC [2, 9] was 4 µg/mL (≈ 2.47 µM), the MIC [3, 10] was 4 µg/mL (≈ 2.47 µM) and the MIC [4, 11] was 4 µg/mL (≈ 2.47 µM). For the same compound, the MIC [5, 12] was 0.5 µg/mL (≈ 0.309 µM), the MIC [1, 13] was > 16 µg/mL and the MIC [6, 14] was > 16 µg/mL.

With `CCC[C@@H]1C[C@@H](C(=O)N[C@@H]([C@H]2O[C@H](SC)[C@H](O)[C@@H](O)[C@H]2O)[C@@H](C)O)N(C)C1` [Lincomycin] the MIC [1, 8] was > 10 µg/mL.

For `CN[C@@H]1[C@H](O)[C@H](NC)[C@H]2O[C@@]3(O)C(=O)C[C@@H](C)O[C@H]3O[C@@H]2[C@H]1O` [Spectinomycin], the MIC [1, 8] was > 8 µg/mL.

Work on `[H]/N=C(/N)N[C@H]1[C@H](O)[C@@H](O)[C@H](O[C@@H]2O[C@@H](C)[C@](O)(C=O)[C@H]2O[C@@H]2O[C@@H](CO)[C@H](O)[C@@H](O)[C@@H]2NC)[C@@H](N/C(N)=N\[H])[C@@H]1O` [Streptomycin] yielded an MIC [2, 9] of 16 µg/mL (≈ 27.5 µM), an MIC [3, 10] of 16 µg/mL (≈ 27.5 µM) and an MIC [4, 11] of 16 µg/mL (≈ 27.5 µM). The MIC [5, 12] was 8 µg/mL (≈ 13.8 µM), the MIC [1, 13] was > 16 µg/mL and the MIC [6, 14] was > 16 µg/mL.

In the case of `CN[C@H](CC(C)C)C(=O)N[C@H]1C(=O)N[C@@H](CC(N)=O)C(=O)N[C@H]2C(=O)N[C@H]3C(=O)N[C@H](C(=O)N[C@H](C(=O)O)c4cc(O)cc(O)c4-c4cc3ccc4O)[C@H](O)c3ccc(c(Cl)c3)Oc3cc2cc(c3O[C@@H]2O[C@H](CO)[C@@H](O)[C@H](O)[C@H]2O[C@H]2C[C@](C)(N)[C@H](O)[C@H](C)O2)Oc2ccc(cc2Cl)[C@H]1O` [Vancomycin], the MIC ([2]; Staphylococcus aureus, ATCC29213, 19 h) is reported as 2 µg/mL (≈ 1.38 µM), the MIC ([3]; Staphylococcus aureus, 19 h) is reported as 2 µg/mL (≈ 1.38 µM) and the MIC ([4]; Staphylococcus aureus, NCTC6571, 19 h) is reported as 2 µg/mL (≈ 1.38 µM). For the same compound, the MIC ([5]; Micrococcus luteus, ATCC9341, 19 h) was 1 µg/mL (≈ 0.69 µM), the MIC ([1]; Enterococcus faecium, CCUG37832) was > 20 µg/mL and the MIC ([1]; Enterococcus faecium, CCUG37832, 19 h) was > 16 µg/mL. The MIC ([6]; Enterococcus faecium, CTC492, 19 h) was 1 µg/mL (≈ 0.69 µM).

Compound `COc1c(Cl)ccc2c(=O)c3c(O)c4c5c(c3oc12)OCO[C@@H]5C[C@@H]1C(=O)c2cc(C)[nH]c(=O)c2C(=O)[C@]41O` [Xantholipin] has an EC50 [7] of 1 µg/mL (≈ 1.81 µM).

For `CC[C@H]1OC(=O)[C@H](C)[C@@H](O[C@H]2C[C@@](C)(OC)[C@@H](O)[C@H](C)O2)[C@H](C)[C@@H](O[C@@H]2O[C@H](C)C[C@H](N(C)C)[C@H]2O)[C@](C)(O)C[C@@H](C)C(=O)[C@H](C)[C@@H](O)[C@]1(C)O` [erythromycin], the MIC [1, 8] was > 20 µg/mL.

Gentamicin was tested, and the MIC ([2]; S. aureus ATCC 29213, 19 h at 35° C.) was 4 µg/mL, the MIC ([3]; S. aureus ATCC 43300 (MRSA), 19 h at 35° C.) was 16 µg/mL and the MIC ([4]; S. aureus NCTC 6571, 19 h at 35° C.) was 4 µg/mL. The MIC ([5]; M. luteus, ATCC 9341, 19 h at 35° C.) was 4 µg/mL, the MIC ([1]; E. faecium CCUG 37832 (multiresistant, vanA-positive clinical isolate), 19 h at 35° C.) was 16 µg/mL and the MIC ([6]; E. faecium CTC 492, 19 h at 35° C.) was 16 µg/mL.
